Drawing on US12667559B2, “Dihydronaphthyridinone compound, and preparation method therefor and medical use thereof” (GENFLEET THERAPEUTICS (SHANGHAI) INC., priority 2020, dated 2026), this text covers IC50 for 18 compounds.

Read-outs that look alike come from different tables or passages of the source.

For one experiment, the target named is T1, RIPK1 (Homo sapiens, UniProt Q13546).
T1 construct: purchased Eurofins 16-022
T1 sequence (Q13546 1-671): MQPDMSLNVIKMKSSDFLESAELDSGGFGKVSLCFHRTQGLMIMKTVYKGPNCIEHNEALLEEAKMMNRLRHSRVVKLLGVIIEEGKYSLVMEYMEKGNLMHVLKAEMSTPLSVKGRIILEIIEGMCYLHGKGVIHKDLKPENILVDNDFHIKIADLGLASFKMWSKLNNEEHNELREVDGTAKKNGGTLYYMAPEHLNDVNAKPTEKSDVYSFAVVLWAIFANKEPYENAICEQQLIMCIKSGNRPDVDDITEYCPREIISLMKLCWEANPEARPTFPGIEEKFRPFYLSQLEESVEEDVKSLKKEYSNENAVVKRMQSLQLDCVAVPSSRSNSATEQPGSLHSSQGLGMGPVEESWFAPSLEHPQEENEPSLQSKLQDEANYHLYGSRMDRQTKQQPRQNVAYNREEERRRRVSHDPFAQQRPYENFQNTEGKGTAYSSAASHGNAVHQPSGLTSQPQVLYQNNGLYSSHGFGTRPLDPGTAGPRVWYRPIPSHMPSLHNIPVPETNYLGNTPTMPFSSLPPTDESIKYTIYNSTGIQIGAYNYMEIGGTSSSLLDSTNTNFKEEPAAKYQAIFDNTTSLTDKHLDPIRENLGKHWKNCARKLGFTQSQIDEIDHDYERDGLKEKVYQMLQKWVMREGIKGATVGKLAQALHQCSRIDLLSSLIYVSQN
The experiment can be described thus: Inhibitory activity against RIPK1 enzyme (33P-ATP, MBP substrate). It is filed as biochemical. The settings on record: 36 nM RIPK1, 0.33 mg/ml MBP, 155 μM 33P-ATP, 2 hours, room temperature. From the text:
(§1) The U937 cell line used in the following test examples is from ATCC, with the number of CRL-1593.2, batch number of 63479999, and the culture medium of RPMI-1640+10% FBS. The L929 cell line used in the following test examples is from ATCC, with the number of CCL-1, batch number of 70001022, and the culture medium of MEM+10% FBS+1% PS. The reagents used, and suppliers and article numbers thereof are as follows: RPMI-1640, Gibco, 11875-093; FBS, Gibco, 10099-141; Trypsin-EDTA, Gibco, 25200-072; PS, Gibco, 15140-122; CellTiter Glo, Progema, G7573; DMSO, VWR AMRESCO, 0231-500ML; TNF-α protein (human, recombinant), Peprotech, 300-01A; Q-VD-Oph, MCE, HY-12305; V-shaped bottom plate, Corning, 3894; 384 well low flange white flat bottom polystyrene TC-treated microplates, Corning, 3570; RIPK1, Eurofins, 16-022; MOPS, BDH, 441644J; EDTA, Sigma, E5134; myelin basic protein, Sigma, M1891-25.00 MG; magnesium acetate, Merck, DU008026; ATP (non-radioactive label), Sigma, A-7699; ATP (radioactive label), Hartmann Analytic, DU008054; phosphoric acid, Metlab, DU003000; Z-VAD: Shanghai Twochem Co., Ltd., YA02401.
The compounds to be tested was dissolved in DMSO to prepare a 10 mM stock solution, which was diluted 3.16 times with DMSO into a series of concentration gradients, and then diluted 50 times with MOPS buffer solution (pH 7.0) to prepare a working solution, which were mixed well with 36 nM RIPK1 (final concentration), and 0.33 mg/ml substrate MBP. 10 mM magnesium ions and 155 μM phosphorous 33 isotope-labeled ATP were added to the reaction. The final concentration of DMSO was 2%. After 2 hours of reaction at room temperature, phosphoric acid was added to stop the reaction. The final reaction system was processed and then detected with a liquid scintillation counter.

The next experiment deals with U937 cells. In words: Inhibitory activity against TNF-α induced programmed cell necrosis (U937 cells, CellTiter-Glo). It is filed as cell-based, human. To be noted: read-out: U937 IC50.
For the next experiment, the system named is L929 cells. In words: Inhibitory activity against TNF-α induced programmed necrosis of L929 cells (CellTiter-Glo). It is filed as cell-based. The settings on record: Mus musculus, 30 ng/ml murine TNF-α and 15 μM Z-VAD, 6 hours, survival rate.
Description: as §1
The compounds to be tested was dissolved in DMSO and prepared as a 10 mM stock solution, which was diluted 3.16 times with DMSO to form a series of concentration gradients, and then diluted 100 times with culture medium to make a working solution. 10,000 L929 cells/well were seeded on a 384-well white plate, and the corresponding concentration of compound was added to each well to mix with the cells uniformly. At the same time, 30 ng/ml murine TNF-α and 15 μM Z-VAD were added to induce programmed necrosis of the cells. The final concentration of DMSO was 0.2%, and the cells were placed in a 37° C., 5% CO2 incubator for further incubation for 6 hours. CellTiter-Glo reagent was used for detection. After the reaction was fully lysed, the chemiluminescence readings was detected by a microplate reader. The test results were calculated using the formula for survival rate: SR (%)=(RLU compound−RLU blank)/(RLU high control-RLU blank)×100%. The survival rate and the final concentration of the corresponding compound were plotted as a curve, and fitted using a four-parameter model to calculate the inhibitory IC50 of compounds on TNF-α-induced programmed cell necrosis.

[1] abbreviates: Homo sapiens, U-937, 48 h, U937 cells, human TNF-α and Q-VD-Oph induced necrosis, 48 hours, survival rate.
Where [2] appears, read: U-937, U937 cells, human TNF-α and Q-VD-Oph induced necrosis, 48 hours, survival rate.

As to `O=C(Nc1cn2nc(-c3cnc4c(c3)C(=O)N(Cc3ccccc3OC(F)(F)F)CC4)ccc2n1)C1CC1` [Z10, N-(6-(5-oxo-6-(2-(trifluoromethoxy)benzyl)-5,6,7,8-tetrahydro-1,6-naphthyridin-3-yl)imidazo[1,2-b]pyridazin-2-yl)cyclopropanecarboxamide], the results for the IC50 against RIPK1, with U937 cells (setting [1]) and in the experiment with L929 cells were 0.056 µM, 0.0059 µM and 0.0024 µM, respectively.
Turning to `Nc1nc2cc(-c3cnc4c(c3)C(=O)N(Cc3cccnc3OC3CCCC3)CC4)ccn2n1` [Z47, 3-(2-amino-[1,2,4]triazole[1,5-a]pyridyl-7-yl)-6-((2-(cyclopentyloxy)pyridyl-3-yl)methyl)-7,8-dihydro-1,6-naphthyridin-5(6H)-one], the IC50 with U937 cells (setting [1]) was 0.003 µM; in the experiment on L929 cells, 0.0051 µM.
`C[C@H](c1ccc(F)cc1)n1cc(N2CCc3ncc(-c4ccn5nc(N)nc5c4)cc3C2=O)cn1` (single isomer, unassigned) [Z74]: the figures for the IC50 against RIPK1, with U937 cells (setting [1]) and with L929 cells were 0.193 µM, 0.0038 µM and 0.0023 µM, respectively.
Consider `CC(=O)Nc1cn2nc(-c3cnc4c(c3)C(=O)N(Cc3cc(F)cc(F)c3OC3CCOCC3)CC4)ccc2n1` [Z2, N-(6-(6-(3,5-difluoro-2-((tetrahydro-2H-pyran-4-yl)oxy)benzyl)-5-oxo-5,6,7,8-tetrahydro-1,6-naphthyridin-3-yl)imidazo[1,2-b]pyridazin-2-yl)acetamide], for which the values for the concentration for half-maximal inhibition (IC50) on RIPK1, in the experiment with U937 cells (setting [1]) and in the experiment with L929 cells were 0.037 µM, 0.000103 µM and less than 0.0028 µM, respectively.
Turning to `C[C@H](c1cc(F)ccc1-c1cnn(C)c1)N1CCc2ncc(-c3ccn4nc(N)nc4c3)cc2C1=O` (single isomer, unassigned) [Z85], the IC50 against RIPK1 amounted to 0.034 µM; in the experiment with U937 cells (setting [1]), 0.0043 µM; in the experiment with L929 cells, 0.0134 µM.
On to `Cn1cc(-c2ccc(F)cc2CN2CCc3ncc(-c4ccn5nc(N)nc5c4)cc3C2=O)cn1` [Z51, 3-(2-amino-[1,2,4]triazolo[1,5-a]pyridyl-7-yl)-6-(5-fluoro-2-(1-methyl-1H-pyrazol-4-yl)benzyl)-7,8-dihydro-1,6-naphthyridin-5(6H)-one], for which the IC50 on RIPK1 was found to be 0.072 µM; in the experiment on U937 cells (setting [1]), 0.024 µM.
Regarding `Cc1c(-c2ccc(F)cc2CN2CCc3ncc(-c4ccn5nc(N)nc5c4)cc3C2=O)cnn1C` [Z82], the IC50 on RIPK1 is 0.05 µM; with U937 cells (setting [1]), 0.0234 µM.
In the case of `Nc1nc2cc(-c3cnc4c(c3)C(=O)N(Cc3cc(F)cc(F)c3OC3CC3)CC4)ccn2n1` [Z69], the IC50 at RIPK1 was 0.033 µM; in the experiment with U937 cells (setting [1]), 0.0014 µM; in the experiment with L929 cells, 0.0037 µM.
On to `CC(=O)Nc1cn2nc(-c3cnc4c(c3)C(=O)N(Cc3ccccc3OC(F)(F)F)CC4)ccc2n1` [Z5, N-(6-(5-oxo-6-(2-(trifluoromethoxy)benzyl)-5,6,7,8-tetrahydro-1,6-naphthyridin-3-yl)imidazo[1,2-b]pyridazin-2-yl)acetamide], for which the IC50 with U937 cells (setting [1]) was found to be 0.0467 µM; in the experiment with L929 cells, 0.008 µM.
Take `Nc1nc2ccc(-c3cnc4c(c3)C(=O)N(Cc3cc(OC(F)(F)F)ccc3F)CC4)cc2o1` [Z16, 3-(2-aminobenzo[d]oxazol-6-yl)-6-(2-fluoro-5-(trifluoromethoxy)benzyl)-7,8-dihydro-1,6-naphthyridin-5(6H)-one]: the IC50 with U937 cells (setting [2]) was determined as 0.0107 µM.
As for `Nc1nc2cc(-c3cnc4c(c3)C(=O)N(Cc3cc(C(F)(F)F)ccc3F)CC4)ccn2n1` [Z72], in the experiment with U937 cells (setting [1]), the IC50 came out at 0.082 µM.
Regarding `Nc1nc2cc(-c3cnc4c(c3)C(=O)N(Cc3cc(OC(F)(F)F)ccc3F)CC4)ccc2o1` [Z17, 3-(2-aminobenzo[d]oxazol-5-yl)-6-(2-fluoro-5-(trifluoromethoxy)benzyl)-7,8-dihydro-1,6-naphthyridin-5(6H)-one], the IC50 in the experiment on U937 cells (setting [2]) was 0.0575 µM.
The same measure, in the same setting: then `CC(=O)Nc1cn2nc(-c3cnc4c(c3)C(=O)N(Cc3cc(F)ccc3-c3cnn(C)c3)CC4)ccc2n1` [Z23, N-(6-(6-(5-fluoro-2-(1-methyl-1H-pyrazol-4-yl)benzyl)-5-oxo-5,6,7,8-tetrahydro-1,6-naphthyridin-3-yl)imidazo[1,2-b]pyridazin-2-yl)acetamide], with 0.0243 µM.
In the case of `CC(=O)Nc1cn2nc(-c3cnc4c(c3)C(=O)N(Cc3cc(F)ccc3OC3CCOCC3)CC4)ccc2n1` [Z21, N-(6-(6-(5-fluoro-2-((tetrahydro-2H-pyran-4-yl)oxy)benzyl)-5-oxo-5,6,7,8-tetrahydro-1,6-naphthyridin-3-yl)imidazo[1,2-b]pyridazin-2-yl)acetamide], in the experiment on U937 cells (Homo sapiens, U-937, 48 h), the IC50 turned out to be 0.0006 µM.
Regarding `CNc1nc2cc(-c3cnc4c(c3)C(=O)N(Cc3cc(OC(F)(F)F)ccc3F)CC4)ccn2n1` [Z59, 6-(2-fluoro-5-(trifluoromethoxy)benzyl)-3-(2-(methylamino)-[1,2,4]triazolo[1,5-a]pyridyl-7-yl)-7,8-dihydro-1,6-naphthyridin-5(6H)-one], the IC50 in the experiment with U937 cells (setting [2]) is 0.012 µM.
`Nc1nc2cc(-c3cc4c(nc3Cl)CCN(Cc3cc(OC(F)(F)F)ccc3F)C4=O)ccn2n1` [Z56, 3-(2-amino-[1,2,4]triazolo[1,5-a]pyridyl-7-yl)-2-chloro-6-(2-fluoro-5-(trifluoromethoxy)benzyl)-7,8-dihydro-1,6-naphthyridin-5(6H)-one]: in the experiment on U937 cells (U937 cells, human TNF-α and Q-VD-Oph induced necrosis, 48 hours, survival rate), the IC50 was found to be 0.004 µM.
Consider `Nc1nc2cc(-c3cnc4c(c3)C(=O)N(c3cnn(Cc5ccc(F)cc5)c3)CC4)ccn2n1` [Z52, 3-(2-amino-[1,2,4]triazolo[1,5-a]pyridyl-7-yl)-6-(1-(4-fluorobenzyl)-1H-pyrazol-4-yl)-7,8-dihydro-1,6-naphthyridin-5(6H)-one], for which the IC50 with U937 cells (setting [1]) stood at 0.019 µM.
`Nc1nc2cc(-c3cnc4c(c3)C(=O)N(Cc3cc(F)ccc3OC3CCCC3)CC4)ccn2n1` [Z45, 3-(2-amino-[1,2,4]triazolo[1,5-a]pyridyl-7-yl)-6-(2-(cyclopentyloxy)-5-fluorobenzyl)-7,8-dihydro-1,6-naphthyridin-5(6H)-one]: the figures for the IC50 in the experiment with U937 cells (setting [1]) and in the experiment with L929 cells were 0.0002 µM and 0.0013 µM, respectively.
